Experimental data: patent US20240350478A1, “APPLICATION OF BENZISOQUINOLINE DIKETONE COMPOUND IN TREATMENT OF TUMOR” (NANJING SHIJIANG MEDICINE TECHNOLOGY CO., LTD, priority 2021, published 2024)
Counter-ions that a name gives are not always drawn.

Tests used:
Type in all cases: cell-based
[1] = test system: NCI-H82 (human small cell lung cancer cell); assay: CellTiter-Glo cell viability, NCI-H82; settings: sensitive group, 3-4 days of culture, n=3
Method: (§1) The inhibitory effect of pixantrone maleate on various tumor cell lines was detected using cell activity detection reagent. • Cell viability was detected using the Promega CellTiter-Glo kit, cell viability was determined by directly measuring intracellular ATP content. In the experiment, the IC50 value of pixantrone maleate on various tumor cell lines was determined. Each tumor cell was cultured separately in relevant medium (+p/s), and was incubated for 3 h, then the gradient diluted pixantrone maleate was added. After 3-4 days of culture, the relevant IC50 (50% inhibiting concentration) was measured (n=3). The name, source and culture conditions of each tumor cell line were as follows: Cell line NCI-H82 (ATCC, No. HTB-175) was cultured in 10% fetal bovine serum-containing RPMI1640 medium (+P/S).

[2] = test system: MDA-MB-453 (breast cancer cell); assay: CellTiter-Glo cell viability, MDA-MB-453; settings: Homo sapiens, sensitive group, 3-4 days of culture, n=3
Method: as §1, with “MDA-MB-453” for “NCI-H82”, “HTB-131)” for “HTB-175)”, “Leibovitz's L-15” for “RPMI1640”

[3] = test system: GB-1 (human glioblastoma cell); assay: CellTiter-Glo cell viability, GB-1; settings: insensitive group, 3-4 days of culture, n=3
Method: as §1, with “GB-1 (JCRB,” for “NCI-H82 (ATCC,”, “IFO50489)” for “HTB-175)”, “DMEM” for “RPMI1640”

[4] = test system: 786-O (clear cell renal cell adenocarcinoma cell); assay: CellTiter-Glo cell viability, 786-O; settings: Homo sapiens, 786-0, insensitive group, 3-4 days of culture, n=3
Method: as §1, with “786-0” for “NCI-H82”, “CRL-1932)” for “HTB-175)”

NCI-H82 (Con) cell = assay: CellTiter-Glo cell viability, control NCI-H82 (Con) cell; settings: Homo sapiens; control NCI-H82 cell transfected with empty virus vector; n=3
Description: (§2) The NNMT protein-overexpressing NCI-H82 cell (NCI-H82 (ov-NNMT)) was obtained by inserting the NNMT gene into NCI-H82 cell using a viral vector. The control NCI-H82 cell (NCI-H82 (Con)) was obtained by transfecting NCI-H82 cell with empty virus vector without carrying NNMT gene. The expressing level of NNMT protein in control NCI-H82 cell (NCI-H82 (Con)) and NNMT protein-overexpressing NCI-H82 cell (NCI-H82 (ov-NNMT)) was detected using Western Blot assay (as shown in FIG. 7), it could be seen from FIG. 7 that the NNMT protein in NCI-H82 (ov-NNMT) cell was overexpressed compared with the expression level of NNMT protein in NCI-H82(Con) cell. The IC50 value of pixantrone maleate on control NCI-H82 cell (NCI-H82 (Con)) and NNMT protein-overexpressing NCI-H82 cell (NCI-H82 (ov-NNMT)) was determined using Promega CellTiter-Glo kit which detected cell viability by directly measuring intracellular ATP content (n=3), the experiment result was shown in Table 4 below: […]

[5] = test system: G-401 (human renal carcinoma Wilms cell); assay: CellTiter-Glo cell viability, G-401; settings: sensitive group, 3-4 days of culture, n=3
Method: as §1, with “G-401” for “NCI-H82”, “CRL-1441)” for “HTB-175)”, “McCoy's 5a” for “RPMI1640”

[6] = test system: WSU-DLCL2 (human diffuse large B-cell lymphoma); assay: CellTiter-Glo cell viability, WSU-DLCL2; settings: WSUDLCL2, sensitive group, 3-4 days of culture, n=3
Method: as §1, with “WSU-DLCL2 (DSMZ,” for “NCI-H82 (ATCC,”, “ACC-575)” for “HTB-175)”

[7] = test system: SW48 (human colon adenocarcinoma cell); assay: CellTiter-Glo cell viability, SW48; settings: sensitive group, 3-4 days of culture, n=3
Method: as §1, with “SW48” for “NCI-H82”, “CCL-231)” for “HTB-175)”, “Leibovitz's L-15” for “RPMI1640”

[8] = test system: SF-126 (human glioblastoma multiforme cell); assay: CellTiter-Glo cell viability, SF-126; settings: insensitive group, 3-4 days of culture, n=3
Method: as §1, with “SF126 (JCRB,” for “NCI-H82 (ATCC,”, “IFO50286)” for “HTB-175)”, “EMEM” for “RPMI1640”

[9] = test system: CFPAC-1 (human pancreatic cancer cell); assay: CellTiter-Glo cell viability, CFPAC-1; settings: insensitive group, 3-4 days of culture, n=3
Method: as §1, with “CFPAC-1” for “NCI-H82”, “CRL-1918)” for “HTB-175)”, “IMDM” for “RPMI1640”

NCI-H82 (ov-NNMT) cell = assay: CellTiter-Glo cell viability, NNMT protein-overexpressing NCI-H82 (ov-NNMT) cell; settings: Homo sapiens, n=3
Description: as §2

IC50 [1]: 0.74 µM
IC50 [2]: 0.86 µM
IC50 [3]: 6.56 µM
IC50 [4]: 21.6 µM
IC50 (NCI-H82 (Con) cell): 0.69 µM
IC50 [5]: 0.29 µM
IC50 [6]: 0.02 µM
IC50 [7]: 0.02 µM
IC50 [8]: 5.42 µM
IC50 [9]: 11.7 µM
IC50 (NCI-H82 (ov-NNMT) cell): 1.93 µM
Structure (SMILES): NCCNc1ccc(NCCN)c2c1C(=O)c1ccncc1C2=O [Pixantrone maleate, pixantrone maleate]
